In ChEMBL document CHEMBL4715697, “Synthesis and biological activity of benzamide DNA minor groove binders” (2016):

Assays:
Type in all cases: functional
Details in all cases: read-out: Activity
HCC 2998 = test: Growth inhibition of human HCC 2998 cells assessed as cell growth at 10 uM incubated for 48 hrs by sulforhodamine B assay relative to control
SNB-75 = test: Growth inhibition of human SNB-75 cells assessed as cell growth at 10 uM incubated for 48 hrs by sulforhodamine B assay relative to control
TK-10 = test: Growth inhibition of human TK-10 cells assessed as cell growth at 10 uM incubated for 48 hrs by sulforhodamine B assay relative to control
DU-145 = test: Growth inhibition of human DU-145 cells assessed as cell growth at 10 uM incubated for 48 hrs by sulforhodamine B assay relative to control
HOP-62 = test: Growth inhibition of human HOP-62 cells assessed as cell growth at 10 uM incubated for 48 hrs by sulforhodamine B assay relative to control
CCRF-CEM = test: Growth inhibition of human CCRF-CEM cells assessed as cell growth at 10 uM incubated for 48 hrs by sulforhodamine B assay relative to control
UO-31 = test: Growth inhibition of human UO-31 cells assessed as cell growth at 10 uM incubated for 48 hrs by sulforhodamine B assay relative to control
OVCAR-8 = test: Growth inhibition of human OVCAR-8 cells assessed as cell growth at 10 uM incubated for 48 hrs by sulforhodamine B assay relative to control
K562 = test: Growth inhibition of human K562 cells assessed as cell growth at 10 uM incubated for 48 hrs by sulforhodamine B assay relative to control
PC-3 = test: Growth inhibition of human PC-3 cells assessed as cell growth at 10 uM incubated for 48 hrs by sulforhodamine B assay relative to control
HT-29 = test: Growth inhibition of human HT-29 cells assessed as cell growth at 10 uM incubated for 48 hrs by sulforhodamine B assay relative to control
SK-MEL-5 = test: Growth inhibition of human SK-MEL-5 cells assessed as cell growth at 10 uM incubated for 48 hrs by sulforhodamine B assay relative to control
RXF 393 = test: Growth inhibition of human RXF 393 cells assessed as cell growth at 10 uM incubated for 48 hrs by sulforhodamine B assay relative to control
NCI-H23 = test: Growth inhibition of human NCI-H23 cells assessed as cell growth at 10 uM incubated for 48 hrs by sulforhodamine B assay relative to control
SN12C = test: Growth inhibition of human SN12C cells assessed as cell growth at 10 uM incubated for 48 hrs by sulforhodamine B assay relative to control
IGROV-1 = test: Growth inhibition of human IGROV-1 cells assessed as cell growth at 10 uM incubated for 48 hrs by sulforhodamine B assay relative to control
MDA-MB-468 = test: Growth inhibition of human MDA-MB-468 cells assessed as cell growth at 10 uM incubated for 48 hrs by sulforhodamine B assay relative to control
SW-620 = test: Growth inhibition of human SW-620 cells assessed as cell growth at 10 uM incubated for 48 hrs by sulforhodamine B assay relative to control
U-251 = test: Growth inhibition of human U-251 cells assessed as cell growth at 10 uM incubated for 48 hrs by sulforhodamine B assay relative to control
BT-549 = test: Growth inhibition of human BT-549 cells assessed as cell growth at 10 uM incubated for 48 hrs by sulforhodamine B assay relative to control
SF-268 = test: Growth inhibition of human SF-268 cells assessed as cell growth at 10 uM incubated for 48 hrs by sulforhodamine B assay relative to control
ACHN = test: Growth inhibition of human ACHN cells assessed as cell growth at 10 uM incubated for 48 hrs by sulforhodamine B assay relative to control
UACC-257 = test: Growth inhibition of human UACC-257 cells assessed as cell growth at 10 uM incubated for 48 hrs by sulforhodamine B assay relative to control
CAKI-1 = test: Growth inhibition of human CAKI-1 cells assessed as cell growth at 10 uM incubated for 48 hrs by sulforhodamine B assay relative to control
MDA-MB-435 = test: Growth inhibition of human MDA-MB-435 cells assessed as cell growth at 10 uM incubated for 48 hrs by sulforhodamine B assay relative to control
NCI-H460 = test: Growth inhibition of human NCI-H460 cells assessed as cell growth at 10 uM incubated for 48 hrs by sulforhodamine B assay relative to control
OVCAR-3 = test: Growth inhibition of human OVCAR-3 cells assessed as cell growth at 10 uM incubated for 48 hrs by sulforhodamine B assay relative to control
786-0 = test: Growth inhibition of human 786-0 cells assessed as cell growth at 10 uM incubated for 48 hrs by sulforhodamine B assay relative to control
SK-OV-3 = test: Growth inhibition of human SK-OV-3 cells assessed as cell growth at 10 uM incubated for 48 hrs by sulforhodamine B assay relative to control
UACC-62 = test: Growth inhibition of human UACC-62 cells assessed as cell growth at 10 uM incubated for 48 hrs by sulforhodamine B assay relative to control
HCT-15 = test: Growth inhibition of human HCT-15 cells assessed as cell growth at 10 uM incubated for 48 hrs by sulforhodamine B assay relative to control
A549 = test: Growth inhibition of human A549/ATCC cells assessed as cell growth at 10 uM incubated for 48 hrs by sulforhodamine B assay relative to control
LOX IMVI = test: Growth inhibition of human LOX IMVI cells assessed as cell growth at 10 uM incubated for 48 hrs by sulforhodamine B assay relative to control
MOLT-4 = test: Growth inhibition of human MOLT-4 cells assessed as cell growth at 10 uM incubated for 48 hrs by sulforhodamine B assay relative to control
NCI-H522 = test: Growth inhibition of human NCI-H522 cells assessed as cell growth at 10 uM incubated for 48 hrs by sulforhodamine B assay relative to control
HCT-116 = test: Growth inhibition of human HCT-116 cells assessed as cell growth at 10 uM incubated for 48 hrs by sulforhodamine B assay relative to control
OVCAR-5 = test: Growth inhibition of human OVCAR-5 cells assessed as cell growth at 10 uM incubated for 48 hrs by sulforhodamine B assay relative to control
M14 = test: Growth inhibition of human M14 cells assessed as cell growth at 10 uM incubated for 48 hrs by sulforhodamine B assay relative to control
RPMI-8226 = test: Growth inhibition of human RPMI-8226 cells assessed as cell growth at 10 uM incubated for 48 hrs by sulforhodamine B assay relative to control

Row | SMILES | growth at 10 µM (HCC 2998) [%] | growth at 10 µM (SNB-75) [%] | growth at 10 µM (TK-10) [%] | growth at 10 µM (DU-145) [%] | growth at 10 µM (HOP-62) [%] | growth at 10 µM (CCRF-CEM) [%] | growth at 10 µM (UO-31) [%] | growth at 10 µM (OVCAR-8) [%] | growth at 10 µM (PC-3) [%] | growth at 10 µM (HT-29) [%] | growth at 10 µM (SK-MEL-5) [%] | growth at 10 µM (RXF 393) [%] | growth at 10 µM (NCI-H23) [%] | growth at 10 µM (SN12C) [%] | growth at 10 µM (IGROV-1) [%] | growth at 10 µM (MDA-MB-468) [%] | growth at 10 µM (SW-620) [%] | growth at 10 µM (U-251) [%] | growth at 10 µM (BT-549) [%] | growth at 10 µM (SF-268) [%] | also measured
1 | CCN(CC)CC(=O)Nc1cccc(C(=O)Nc2cc(CO)cc(NC(C)=O)c2)c1 | 95.8 | 91 | 96.6 | 125 | 96.9 | 97.2 | 96.6 | 115 | 102 | 103 | 102 | 102 | 98.4 | 112 | 130 | 95.7 | 115 | 103 | 105 | 113 | growth at 10 µM (K562): 105%; growth at 10 µM (ACHN): 105%; growth at 10 µM (UACC-257): 101%; growth at 10 µM (CAKI-1): 112%; growth at 10 µM (MDA-MB-435): 110%; growth at 10 µM (NCI-H460): 104%; growth at 10 µM (OVCAR-3): 126%; growth at 10 µM (786-0): 98.7%; growth at 10 µM (SK-OV-3): 104%; growth at 10 µM (UACC-62): 106%; growth at 10 µM (HCT-15): 103%; growth at 10 µM (A549): 103%; growth at 10 µM (LOX IMVI): 98.7%; growth at 10 µM (MOLT-4): 111%; growth at 10 µM (NCI-H522): 93.8%; growth at 10 µM (HCT-116): 99.6%; growth at 10 µM (OVCAR-5): 105%; growth at 10 µM (M14): 103%
2 | CC(=O)Nc1cc(CCl)cc(NC(=O)c2ccc(C(=O)NCCCN(C)C)cc2)c1 | 90 | 86 | 107 | 112 | 106 | 103 | 103 | 111 | 109 | 103 | 108 | 116 | 97.8 | 128 | 136 | 92.9 | 108 | 103 | 105 | 106 | growth at 10 µM (K562): 106%; growth at 10 µM (ACHN): 105%; growth at 10 µM (UACC-257): 102%; growth at 10 µM (CAKI-1): 102%; growth at 10 µM (MDA-MB-435): 105%; growth at 10 µM (NCI-H460): 104%; growth at 10 µM (OVCAR-3): 106%; growth at 10 µM (786-0): 104%; growth at 10 µM (SK-OV-3): 107%; growth at 10 µM (UACC-62): 114%; growth at 10 µM (HCT-15): 104%; growth at 10 µM (A549): 98.5%; growth at 10 µM (LOX IMVI): 95.2%; growth at 10 µM (MOLT-4): 105%; growth at 10 µM (NCI-H522): 98.7%; growth at 10 µM (HCT-116): 103%; growth at 10 µM (OVCAR-5): 97.5%; growth at 10 µM (M14): 107%
3 | CCN(CC)CC(=O)Nc1ccc(C(=O)Nc2cc(CO)cc(NC(C)=O)c2)cc1 | 98.6 | 110 | 99.2 | 119 | 101 | 98.2 | 97.8 | 107 | 116 | 110 | 103 | 110 | 104 | 103 | 129 | 99.4 | 109 | 108 | 112 | 107 | growth at 10 µM (RPMI-8226): 126%; growth at 10 µM (ACHN): 108%; growth at 10 µM (UACC-257): 103%; growth at 10 µM (CAKI-1): 106%; growth at 10 µM (MDA-MB-435): 96.3%; growth at 10 µM (NCI-H460): 109%; growth at 10 µM (OVCAR-3): 116%; growth at 10 µM (786-0): 97.4%; growth at 10 µM (SK-OV-3): 107%; growth at 10 µM (UACC-62): 97%; growth at 10 µM (HCT-15): 100%; growth at 10 µM (A549): 95.7%; growth at 10 µM (LOX IMVI): 106%; growth at 10 µM (MOLT-4): 120%; growth at 10 µM (NCI-H522): 105%; growth at 10 µM (HCT-116): 109%; growth at 10 µM (OVCAR-5): 107%; growth at 10 µM (M14): 109%
